The test system of the assay is mutant Huntington (HTT) protein. In words: HTT Mutant HTRF iPSC assay (mHTT protein lowering). Conditions: human iPSC derived from a HTT patient with a poly-Q49 mutation. The assay is classed as cell-based. (In TR-FRET formats the signal depends on donor and acceptor labels being close together.)

Molecules are shown by their SMILES.

What is called IC50 is the concentration at which inhibition is half-maximal. Low values mean higher potency, high ones lower potency. With `Cc1cn2nc(-c3cc(F)c4nc([C@H]5[C@@H]6CN(CC(F)F)C[C@@H]65)cn4c3)cc(C)c2n1` [Compound 217, 6-(2-((1R,5S,6r)-3-(2,2-difluoroethyl)-3-azabicyclo[3.1.0]hexan-6-yl)-8-fluoroimidazo[1,2-a]pyridin-6-yl)-2,8-dimethylimidazo[1,2-b]pyridazine], the IC50 was 100 to 1000 nM. In the case of `Cc1cn2nc(-c3cc(F)c4nc([C@H]5[C@@H]6CN(C7CC(F)(F)C7)C[C@@H]65)cn4c3)cc(C)c2n1` [Compound 218, 6-(2-((1R,5S,6r)-3-(3,3-difluorocyclobutyl)-3-azabicyclo[3.1.0]hexan-6-yl)-8-fluoroimidazo[1,2-a]pyridin-6-yl)-2,8-dimethylimidazo[1,2-b]pyridazine] it was 100 to 1000 nM.

`Cc1nc2ccc(-c3cc(F)c4nc([C@H]5[C@@H]6CN(C)C[C@@H]65)cn4c3)nn2n1` [Compound 219, 6-(8-fluoro-2-((1R,5S,6r)-3-methyl-3-azabicyclo[3.1.0]hexan-6-yl)imidazo[1,2-a]pyridin-6-yl)-2-methyl-[1,2,4]triazolo[1,5-b]pyridazine] showed an IC50 of 100 to 1000 nM.

`Cc1cn2nc(-c3cc(F)c4nc(C5CCN(C)CC5)cn4c3)cc2c(C)n1` [Compound 220, 2-(8-fluoro-2-(1-methylpiperidin-4-yl)imidazo[1,2-a]pyridin-6-yl)-4,6-dimethylpyrazolo[1,5-a]pyrazine]: the IC50 was under 100 nM. In the case of `COCCN1CCC(c2cn3cc(-c4cc5c(C)nc(C)cn5n4)cc(F)c3n2)CC1` [Compound 221, 2-(8-fluoro-2-(1-(2-methoxyethyl)piperidin-4-yl)imidazo[1,2-a]pyridin-6-yl)-4,6-dimethylpyrazolo[1,5-a]pyrazine] it was under 100 nM.

In turn, `Cc1cn2nc(-c3cc(F)c4nc([C@H]5[C@@H]6CN(C)C[C@@H]65)cn4c3)cc2c(C)n1` [Compound 222, 2-(8-fluoro-2-((1R,5S,6r)-3-methyl-3-azabicyclo[3.1.0]hexan-6-yl)imidazo[1,2-a]pyridin-6-yl)-4,6-dimethylpyrazolo[1,5-a]pyrazine] registered an IC50 of under 100 nM.

`Cc1cc2nc(-c3cc(F)c4nc([C@H]5[C@@H]6CN(C)C[C@@H]65)cn4c3)cc(C)n2n1` [Compound 223, 5-(8-fluoro-2-((1R,5S,6r)-3-methyl-3-azabicyclo[3.1.0]hexan-6-yl)imidazo[1,2-a]pyridin-6-yl)-2,7-dimethylpyrazolo[1,5-a]pyrimidine] gave an IC50 of 100 to 1000 nM. In the case of `Cc1nc2c(C)cc(-c3cc(F)c4nc(C5CCN(C)CC5)cn4c3)nn2n1` [Compound 224] it was under 100 nM; in that of `COc1cc(-c2cc(F)c3nc(C4CCN(C)CC4)cn3c2)nn2nc(C)nc12` [Compound 225, 6-(8-fluoro-2-(1-methylpiperidin-4-yl)imidazo[1,2-a]pyridin-6-yl)-8-methoxy-2-methyl-[1,2,4]triazolo[1,5-b]pyridazine], under 100 nM; in that of `Cc1cn2nc(-c3cc(F)c4nc(C5CCN(C6(C)CC6)CC5)cn4c3)cc(C)c2n1` [Compound 226, 6-[8-fluoro-2-[1-(1-methylcyclopropyl)-4-piperidyl]imidazo[1,2-a]pyridin-6-yl]-2,8-dimethyl-imidazo[1,2-b]pyridazine], 100 to 1000 nM.

`Cc1nc2c(C)cc(-c3cc(F)c4nc([C@H]5[C@@H]6CN(C)C[C@@H]65)cn4c3)nn2n1` [Compound 227, 6-(8-fluoro-2-((1R,5S,6r)-3-methyl-3-azabicyclo[3.1.0]hexan-6-yl)imidazo[1,2-a]pyridin-6-yl)-2,8-dimethyl-[1,2,4]triazolo[1,5-b]pyridazine] gave an IC50 of under 100 nM. In the case of `Cc1cc(-c2cc(F)c3nc([C@H]4[C@@H]5CN(C)C[C@@H]54)cn3c2)nn2cc(C(F)F)nc12` [Compound 228, 2-(difluoromethyl)-6-(8-fluoro-2-((1R,5S,6r)-3-methyl-3-azabicyclo[3.1.0]hexan-6-yl)imidazo[1,2-a]pyridin-6-yl)-8-methylimidazo[1,2-b]pyridazine] it was 100 to 1000 nM. In turn, `Cc1cn2nc(-c3cc(F)c4nc(C5CCC6(CCN(C)CC6)C5)cn4c3)cc(C)c2n1` (stereo not shown) [Compound 229, 2-(6-(2,8-dimethylimidazo[1,2-b]pyridazin-6-yl)-8-fluoroimidazo[1,2-a]pyridin-2-yl)-8-methyl-8-azaspiro[4.5]decane] yielded an IC50 of under 100 nM. In turn, `Cc1cn2nc(-c3cc(F)c4nc([C@H]5[C@@H]6CN(C)C[C@@H]65)cn4c3)cc(C(F)(F)F)c2n1` [Compound 230, 6-(8-fluoro-2-((1R,5S,6r)-3-methyl-3-azabicyclo[3.1.0]hexan-6-yl)imidazo[1,2-a]pyridin-6-yl)-2-methyl-8-(trifluoromethyl)imidazo [1,2-b]pyridazine] gave an IC50 of under 100 nM. In the case of `Cc1cn2nc(-c3cc(F)c4nc([C@@H]5C6CCN(C)CC65)cn4c3)cc(C)c2n1` (stereo partly drawn) [Compound 231, 6-(8-fluoro-2-((7R)-3-methyl-3-azabicyclo[4.1.0]heptan-7-yl)imidazo[1,2-a]pyridin-6-yl)-2,8-dimethylimidazo[1,2-b]pyridazine] it was under 100 nM. In the case of `Cc1cn2nc(-c3cc(F)c4nc(C5CCC6(CCN(C)C6)C5)cn4c3)cc(C)c2n1` (stereo not shown) [Compound 232, 6-(8-fluoro-2-(2-methyl-2-azaspiro[4.4]nonan-7-yl)imidazo[1,2-a]pyridin-6-yl)-2,8-dimethylimidazo[1,2-b]pyridazine] it was under 100 nM. Compound `Cc1cn2nc(-c3cc(F)c4nc([C@H]5[C@@H]6CN(C)C[C@@H]65)cn4c3)cc(C(F)F)c2n1` [Compound 233, 8-(difluoromethyl)-6-(8-fluoro-2-((1R,5S,6r)-3-methyl-3-azabicyclo[3.1.0]hexan-6-yl)imidazo[1,2-a]pyridin-6-yl)-2-methylimidazo[1,2-b]pyridazine] yielded an IC50 of under 100 nM. `Cc1cn2cc(-c3cc(F)c4nc(CC5CCNCC5)cn4c3)cc(F)c2n1` [Compound 236, 8,8′-difluoro-2-methyl-2′-(piperidin-4-ylmethyl)-6,6′-biimidazo[1,2-a]pyridine] had an IC50 of 100 to 1000 nM. In the case of `Cc1cn2nc(-c3cc(F)c4nc(CC5CCN(C)CC5)cn4c3)cc(C)c2n1` [Compound 237, 6-(8-fluoro-2-((1-methylpiperidin-4-yl)methyl)imidazo[1,2-a]pyridin-6-yl)-2,8-dimethylimidazo[1,2-b]pyridazine] it was under 100 nM; in that of `Cc1cn2nc(-c3cc(F)c4nc(CC5CCNCC5)cn4c3)cc(C)c2n1` [Compound 238, 6-(8-fluoro-2-(piperidin-4-ylmethyl)imidazo[1,2-a]pyridin-6-yl)-2,8-dimethylimidazo[1,2-b]pyridazine], under 100 nM. In the case of `Cc1cn2nc(-c3cc(F)c4nc(NC(=O)[C@H]5[C@@H]6CNC[C@@H]65)cn4c3)cc(C)c2n1` [Compound 246, (1R,5S,6r)-N-(6-(2,8-dimethylimidazo[1,2-b]pyridazin-6-yl)-8-fluoroimidazo[1,2-a]pyridin-2-yl)-3-azabicyclo[3.1.0]hexane-6-carboxamide] it was under 100 nM; in that of `Cc1cn2nc(-c3cc(F)c4nc(NC(=O)C5CCCNC5)cn4c3)cc(C)c2n1` (stereo not shown) [Compound 248, N-(6-(2,8-dimethylimidazo[1,2-b]pyridazin-6-yl)-8-fluoroimidazo[1,2-a]pyridin-2-yl)piperidine-3-carboxamide], under 100 nM. In the case of `CNC1CC(C(=O)Nc2cn3cc(-c4cc(C)c5nc(C)cn5n4)cc(F)c3n2)C1` (stereo not shown) [Compound 249, N-(6-(2,8-dimethylimidazo[1,2-b]pyridazin-6-yl)-8-fluoroimidazo[1,2-a]pyridin-2-yl)-3-(methylamino)cyclobutane-1-carboxamide] it was under 100 nM; in that of `Cc1cn2nc(-c3cc(F)c4nc(NC(=O)C5CCNCC5)cn4c3)cc(C)c2n1` [Compound 250, N-(6-(2,8-dimethylimidazo[1,2-b]pyridazin-6-yl)-8-fluoroimidazo[1,2-a]pyridin-2-yl)piperidine-4-carboxamide], 100 to 1000 nM; in that of `Cc1cn2nc(-c3cc(F)c4nc(NC(=O)C5CC(CN(C)C)C5)cn4c3)cc(C)c2n1` (stereo not shown) [Compound 251, 3-((dimethylamino)methyl)-N-(6-(2,8-dimethylimidazo[1,2-b]pyridazin-6-yl)-8-fluoroimidazo[1,2-a]pyridin-2-yl)cyclobutane-1-carboxamide], 100 to 1000 nM. `Cc1cn2nc(-c3cc(F)c4nc(NC(=O)C5CC6(CCNC6)C5)cn4c3)cc(C)c2n1` (stereo not shown) [Compound 252, N-(6-(2,8-dimethylimidazo[1,2-b]pyridazin-6-yl)-8-fluoroimidazo[1,2-a]pyridin-2-yl)-6-azaspiro[3.4]octane-2-carboxamide] registered an IC50 of 100 to 1000 nM. In the case of `Cc1cn2nc(-c3cc(F)c4nc(NC(=O)C5CN(C6COC6)C5)cn4c3)cc(C)c2n1` [Compound 254, N-(6-(2,8-dimethylimidazo[1,2-b]pyridazin-6-yl)-8-fluoroimidazo[1,2-a]pyridin-2-yl)-1-(oxetan-3-yl)azetidine-3-carboxamide] it was under 100 nM.

On to `Cc1cn2nc(-c3cc(F)c4nc(NC(=O)C5COC5)cn4c3)cc(C)c2n1` [Compound 256, N-(6-(2,8-dimethylimidazo[1,2-b]pyridazin-6-yl)-8-fluoroimidazo[1,2-a]pyridin-2-yl)oxetane-3-carboxamide], for which the IC50 was 100 to 1000 nM.

Regarding `Cc1cn2nc(-c3cc(F)c4nc(NC(=O)C5CN(C)C5)cn4c3)cc(C)c2n1` [Compound 257, N-(6-(2,8-dimethylimidazo[1,2-b]pyridazin-6-yl)-8-fluoroimidazo[1,2-a]pyridin-2-yl)-1-methylazetidine-3-carboxamide], the IC50 was under 100 nM. In the case of `Cc1cn2nc(-c3cc(F)c4nc(NC(=O)C5(C)CNC5)cn4c3)cc(C)c2n1` [Compound 258, N-(6-(2,8-dimethylimidazo[1,2-b]pyridazin-6-yl)-8-fluoroimidazo[1,2-a]pyridin-2-yl)-3-methylazetidine-3-carboxamide] it was under 100 nM; in that of `Cc1cn2nc(-c3cc(F)c4nc(NC(=O)C5(C)CN(C)C5)cn4c3)cc(C)c2n1` [Compound 261, N-(6-(2,8-dimethylimidazo[1,2-b]pyridazin-6-yl)-8-fluoroimidazo[1,2-a]pyridin-2-yl)-1,3-dimethylazetidine-3-carboxamide], under 100 nM.

The values above are taken from patent US20250353841A1 (BIOGEN MA INC., priority 2022, published 2025).
